The compounds below were run on HIV-1 single-round infectious reporter virus (assay: Single-round infectious HIV-1 luciferase reporter virus infection of HeLa CD4 cells (antiviral EC50)). Conditions: Human immunodeficiency virus 1, HeLa, 72 h, read-out: EC50 Group from Table 1.
Type: cell-based
Protocol: • Virus production—Human embryonic Kidney cell line, 293T, was propagated in Dulbecco's Modified Eagle Medium (Invitrogen, Carlsbad, Calif.) containing 10% fetal Bovine serum (FBS, Sigma, St. Louis, Mo.). • Virus infection—Human epithelial cell line, HeLa, expressing the HIV-1 receptor CD4 was propagated in Dulbecco's Modified Eagle Medium (Invitrogen, Carlsbad, Calif.) containing 10% fetal Bovine serum (FBS, Sigma, St. Louis, Mo.) and supplemented with 0.2 mg/mL Geneticin (Invitrogen, Carlsbad, Calif.). Virus-Single-round infectious reporter virus was produced by co-transfecting human embryonic Kidney 293 cells with an HIV-1 envelope DNA expression vector and a proviral cDNA containing an envelope deletion mutation and the luciferase reporter gene inserted in place of HIV-1 nef sequences (Chen et al, Ref. 41). Transfections were performed using lipofectAMINE PLUS reagent as described by the manufacturer (Invitrogen, Carlsbad, Calif.).
• 1. HeLa CD4 cells were plated in 96 well plates at a cell density of 1×10^4 cells per well in 100 μl Dulbecco's Modified Eagle Medium containing 10% fetal Bovine serum and incubated overnight. • 2. Compound was added in a 2 μl dimethylsulfoxide solution, so that the final assay concentration would be ≦10 μM. • 3. 100 μl of single-round infectious reporter virus in Dulbecco's Modified Eagle Medium was then added to the plated cells and compound at an approximate multiplicity of infection (MOI) of 0.01, resulting in a final volume of 200 μl per well. • 4. Virally-infected cells were incubated at 37 degrees Celsius, in a CO2 incubator, and harvested 72 h after infection. • 5. Viral infection was monitored by measuring luciferase expression from viral DNA in the infected cells using a luciferase reporter gene assay kit, as described by the manufacturer (Roche Molecular Biochemicals, Indianapolis, Ind.). Infected cell supernatants were removed and 50 μl of lysis buffer was added per well. After 15 minutes, 50 μl of freshly-reconstituted luciferase assay reagent was added per well. Luciferase activity was then quantified by measuring luminescence using a Wallac microbeta scintillation counter. • 6. The percent inhibition for each compound was calculated by quantifying the level of luciferase expression in cells infected in the presence of each compound as a percentage of that observed for cells infected in the absence of compound and subtracting such a determined value from 100. • 7. An EC50 provides a method for comparing the antiviral potency of the compounds of this invention. The effective concentration for fifty percent inhibition (EC50) was calculated with the Microsoft Excel Xlfit curve fitting software. For each compound, curves were generated from percent inhibition calculated at 10 different concentrations by using a four paramenter logistic model (model 205). Table 1 is the key for the data in Table 2.

First: O=C(C(=O)N1CCC(=C(c2ccccc2)c2ccccc2)CC1)c1c[nH]c2ccccc12 [Example 4]
Second: COc1ncc(OC)c2c(C(=O)C(=O)N3CCC(=C(c4ccccc4)c4ccccc4)CC3)c[nH]c12 [Example 57]
The EC50 of the first is higher: 1000 to 5000 nM for the first, < 1000 nM for the second.

COc1ncc(OC)c2c(C(=O)C(=O)N3CCC(=C(Cl)c4ccccc4)CC3)c[nH]c12 [Example 5] and COc1ncc(OC)c2c(C(=O)C(=O)N3CCC(=C(C)c4ccccc4)CC3)c[nH]c12 [Example 8] cannot be ordered by EC50: < 1000 nM for the first, < 1000 nM for the second.

First: O=C(C(=O)N1CCC(=Cc2ccccc2)CC1)c1c[nH]c2c(-c3ncon3)ccc(F)c12 [Example 6]
Second: COc1ncc(OC)c2c(C(=O)C(=O)N3CCC(=Cc4ccccc4)CC3)c[nH]c12 [Example 13]
The EC50 of the first is lower: < 1000 nM for the first, > 5000 nM for the second. The first is the more potent here.

COc1ncc(OC)c2c(C(=O)C(=O)N3CCC(=C(F)c4ccccc4)CC3)c[nH]c12 [Example 9] and COc1ncc(OC)c2c(C(=O)C(=O)N3CCC(=C(Br)c4ccccc4)CC3)c[nH]c12 [Example 48a, 1-[4-(1-Bromo-1-phenyl-methylene)-piperidin-1-yl]-2-(4,7-dimethoxy-6-azaindol-3-yl)-ethane-1,2-dione] cannot be ordered by EC50: < 1000 nM for the first, < 1000 nM for the second.

COc1ccnc2[nH]cc(C(=O)C(=O)N3CCC(=C(F)c4ccccc4)CC3)c12 [Example 10] and COc1cnc(Cl)c2[nH]cc(C(=O)C(=O)N3CCC(=C(F)c4ccccc4)CC3)c12 [Example 21] cannot be ordered by EC50: < 1000 nM for the first, < 1000 nM for the second.

Compared with COc1ncc(OC)c2c(C(=O)C(=O)N3CCC(=C(c4ccccc4)S(C)(=O)=O)CC3)c[nH]c12 [Example 12], COc1ncc(OC)c2c(C(=O)C(=O)N3CCC(=C(C(N)=O)c4ccccc4)CC3)c[nH]c12 [Example 47] is lower in EC50: 1000 to 5000 nM for the first, < 1000 nM for the second. The second is the more potent here.

First: CC1CN(C(=O)C(=O)c2c[nH]c3ccccc23)CC/C1=C\c1ccccc1 (stereo not drawn) [Example 14]
Second: COc1ccccc1C(=C1CCN(C(=O)C(=O)c2c[nH]c3c(OC)ncc(OC)c23)CC1)c1ccccc1 [Example 65]
The EC50 of the first is higher: 1000 to 5000 nM for the first, < 1000 nM for the second.

COc1ncc(OC)c2c(C(=O)C(=O)N3CCC(=C(C#N)c4nc5ccccc5[nH]4)CC3)c[nH]c12 [Example 23] and COc1ncc(OC)c2c(C(=O)C(=O)N3CCC(=C(c4ccccc4)c4ccc(C#N)cc4)CC3)c[nH]c12 [Example 59] cannot be ordered by EC50: < 1000 nM for the first, < 1000 nM for the second.

First: COc1cnc(Cl)c2[nH]cc(C(=O)C(=O)N3CCC(=C(C(N)=O)c4ccccc4)CC3)c12 [Example 48]
Second: COc1cnc(-c2cnccn2)c2[nH]cc(C(=O)C(=O)N3CCC(=C(C(N)=O)c4ccccc4)CC3)c12 [Example 49]
The EC50 of the first is higher: 1000 to 5000 nM for the first, < 1000 nM for the second. The second is the more potent here.

COc1ncc(OC)c2c(C(=O)C(=O)N3CCC(=C(c4ccccc4)c4nccs4)CC3)c[nH]c12 [Example 49a, 1-[4-(1-Phenyl-1-(thiazol-2-yl)-methylene)-piperidin-1-yl]-2-(4,7-dimethoxy-6-azaindol-3-yl)-ethane-1,2-dione] and COc1ncc(OC)c2c(C(=O)C(=O)N3CCC(=C(c4ccccc4)c4ncco4)CC3)c[nH]c12 [Example 61] cannot be ordered by EC50: < 1000 nM for the first, < 1000 nM for the second.

COc1ncc(OC)c2c(C(=O)C(=O)N3CCC(=C(c4ccccc4)c4ccccn4)CC3)c[nH]c12 [Example 50, 1-[4-(1-Phenyl-1-(pyridin-2-yl)-methylene)-piperidin-1-yl]-2-(4,7-dimethoxy-6-azaindol-3-yl)-ethane-1,2-dione] and COc1ncc(OC)c2c(C(=O)C(=O)N3CCC(=C(c4ccccc4)c4cnccn4)CC3)c[nH]c12 [Example 56] cannot be ordered by EC50: < 1000 nM for the first, < 1000 nM for the second.

COc1ncc(OC)c2c(C(=O)C(=O)N3CCC(=C(c4ccccc4)c4nnco4)CC3)c[nH]c12 [Example 51, 1-[4-(1-Phenyl-1-(1,3,4-oxadiazol-2-yl)-methylene)-piperidin-1-yl]-2-(4,7-dimethoxy-6-azaindol-3-yl)-ethane-1,2-dione] and COc1ncc(OC)c2c(C(=O)C(=O)N3CCC(=C(c4ccccc4)c4nnc(C)o4)CC3)c[nH]c12 [Example 52, 1-[4-(1-Phenyl-1-(5-methyl-1,3,4-oxadiazol-2-yl)-methylene)-piperidin-1-yl]-2-(4,7-dimethoxy-6-azaindol-3-yl)-ethane-1,2-dione] cannot be ordered by EC50: < 1000 nM for the first, < 1000 nM for the second.

COc1ncc(OC)c2c(C(=O)C(=O)N3CCC(=C(c4ccccc4)c4nnc(C(F)(F)F)o4)CC3)c[nH]c12 [Example 53, 1-[4-(1-Phenyl-1-(5-trifluoromethyl-1,3,4-oxadiazol-2-yl)-methylene)-piperidin-1-yl]-2-(4,7-dimethoxy-6-azaindol-3-yl)-ethane-1,2-dione] and COc1ncc(OC)c2c(C(=O)C(=O)N3CCC(=C(c4ccccc4)c4c(C)noc4C)CC3)c[nH]c12 [Example 60] cannot be ordered by EC50: < 1000 nM for the first, < 1000 nM for the second.

COc1ncc(OC)c2c(C(=O)C(=O)N3CCC(=C(c4ccccc4)c4ccco4)CC3)c[nH]c12 [Example 54] and COc1ncc(OC)c2c(C(=O)C(=O)N3CCC(=C(c4ccccc4)c4cccc(F)c4)CC3)c[nH]c12 [Example 67] cannot be ordered by EC50: < 1000 nM for the first, < 1000 nM for the second.

COc1ncc(OC)c2c(C(=O)C(=O)N3CCC(=C(c4ccccc4)c4cc(C)cs4)CC3)c[nH]c12 [Example 55] and COc1cccc(C(=C2CCN(C(=O)C(=O)c3c[nH]c4c(OC)ncc(OC)c34)CC2)c2ccccc2)c1 [Example 58] cannot be ordered by EC50: < 1000 nM for the first, < 1000 nM for the second.

COc1ccc(C(=C2CCN(C(=O)C(=O)c3c[nH]c4c(OC)ncc(OC)c34)CC2)c2ccccc2)cc1 [Example 62] and COc1ncc(OC)c2c(C(=O)C(=O)N3CCC(=C(c4ccccc4)c4ccc(F)cc4)CC3)c[nH]c12 [Example 64] cannot be ordered by EC50: < 1000 nM for the first, < 1000 nM for the second.

COc1ncc(OC)c2c(C(=O)C(=O)N3CCC(=C(c4ccccc4)c4ccc(SC)cc4)CC3)c[nH]c12 [Example 63] and COc1ncc(OC)c2c(C(=O)C(=O)N3CCC(=C(c4ccccc4)c4cccc(SC)c4)CC3)c[nH]c12 [Example 68] cannot be ordered by EC50: < 1000 nM for the first, < 1000 nM for the second.

COc1ncc(OC)c2c(C(=O)C(=O)N3CCC(=C(c4ccccc4)c4cccc([N+](=O)[O-])c4)CC3)c[nH]c12 [Example 66] and COc1cnc(-c2cnccn2)c2[nH]cc(C(=O)C(=O)N3CCC(=C(c4ccccc4)c4cccnc4)CC3)c12 [Example 71, 1-[4-(1-Phenyl-1-(pyridin-3-yl)-methylene)-piperidin-1-yl]-2-(4-methoxy-7-pyrazinyl-6-azaindol-3-yl)-ethane-1,2-dione] cannot be ordered by EC50: < 1000 nM for the first, < 1000 nM for the second.

COc1cnc(-c2cnccn2)c2[nH]cc(C(=O)C(=O)N3CCC(=C(c4ccccc4)c4cnccn4)CC3)c12 [Example 70, 1-[4-(1-Phenyl-1-(pyrazinyl)-methylene)-piperidin-1-yl]-2-(4-methoxy-7-pyrazinyl-6-azaindol-3-yl)-ethane-1,2-dione] and COc1cnc(-c2cnccn2)c2[nH]cc(C(=O)C(=O)N3CCC(=C(c4ccccc4)c4nnc(C)o4)CC3)c12 [Example 72, 1-[4-(1-Phenyl-1-(5-methyl-1,3,4-oxadiazol-2-yl)-methylene)-piperidin-1-yl]-2-(4-methoxy-7-pyrazinyl-6-azaindol-3-yl)-ethane-1,2-dione] cannot be ordered by EC50: < 1000 nM for the first, < 1000 nM for the second.

COc1cnc(-n2ccnn2)c2[nH]cc(C(=O)C(=O)N3CCC(=C(c4ccccc4)c4nnc(C)o4)CC3)c12 [Example 73, 1-[4-(1-Phenyl-1-(5-methyl-1,3,4-oxadiazol-2-yl)-methylene)-piperidin-1-yl]-2-[4-methoxy-7-(1,2,3-triazol-1-yl)-6-azaindol-3-yl]-ethane-1,2-dione] was tested, and the EC50 was < 1000 nM.

From patent US20080188481A1 (priority 2002, published 2008)
